Test results from ChEMBL document CHEMBL1212896, “Discovery of novel cyanodihydropyridines as potent mineralocorticoid receptor antagonists” (J Med Chem, 2010).
Values after ≈ are worked out from the molar mass of the structure shown. Active and inactive are the calls of the source. The calls are words filed in the database; no cut-off is given here.

Tests used:
[1] = tested on: Rattus norvegicus; assay: Protection of renal injury in Dahl salt-sensitive rat model assessed as reduction of urinal albumin excretion at 60 mg/kg, po bid for 21 days; type: functional, organism-based; set-up: dose 60 mg/kg
[2] = Half life in Sprague-Dawley rat at 5 mg/kg, iv; type: ADME, organism-based; set-up: dose 5 mg/kg, route intravenous; conditions: in vivo
[3] = Clearance in Sprague-Dawley rat at 5 mg/kg, iv; type: ADME, organism-based; set-up: dose 5 mg/kg, route intravenous; conditions: in vivo
[4] = Volume of distribution at steady state in Sprague-Dawley rat at 5 mg/kg, iv; type: ADME, organism-based; set-up: dose 5 mg/kg, route intravenous; conditions: in vivo, read-out: Vdss
[5] = molecular target: T1, Androgen receptor (Homo sapiens, UniProt P10275); assay: Antagonist activity at androgen receptor LBD expressed in human HUH7 cells coexpressing GAL4 by luciferase reporter gene assay; type: functional, cell-based, Huh-7
T1 sequence (P10275 whole entry): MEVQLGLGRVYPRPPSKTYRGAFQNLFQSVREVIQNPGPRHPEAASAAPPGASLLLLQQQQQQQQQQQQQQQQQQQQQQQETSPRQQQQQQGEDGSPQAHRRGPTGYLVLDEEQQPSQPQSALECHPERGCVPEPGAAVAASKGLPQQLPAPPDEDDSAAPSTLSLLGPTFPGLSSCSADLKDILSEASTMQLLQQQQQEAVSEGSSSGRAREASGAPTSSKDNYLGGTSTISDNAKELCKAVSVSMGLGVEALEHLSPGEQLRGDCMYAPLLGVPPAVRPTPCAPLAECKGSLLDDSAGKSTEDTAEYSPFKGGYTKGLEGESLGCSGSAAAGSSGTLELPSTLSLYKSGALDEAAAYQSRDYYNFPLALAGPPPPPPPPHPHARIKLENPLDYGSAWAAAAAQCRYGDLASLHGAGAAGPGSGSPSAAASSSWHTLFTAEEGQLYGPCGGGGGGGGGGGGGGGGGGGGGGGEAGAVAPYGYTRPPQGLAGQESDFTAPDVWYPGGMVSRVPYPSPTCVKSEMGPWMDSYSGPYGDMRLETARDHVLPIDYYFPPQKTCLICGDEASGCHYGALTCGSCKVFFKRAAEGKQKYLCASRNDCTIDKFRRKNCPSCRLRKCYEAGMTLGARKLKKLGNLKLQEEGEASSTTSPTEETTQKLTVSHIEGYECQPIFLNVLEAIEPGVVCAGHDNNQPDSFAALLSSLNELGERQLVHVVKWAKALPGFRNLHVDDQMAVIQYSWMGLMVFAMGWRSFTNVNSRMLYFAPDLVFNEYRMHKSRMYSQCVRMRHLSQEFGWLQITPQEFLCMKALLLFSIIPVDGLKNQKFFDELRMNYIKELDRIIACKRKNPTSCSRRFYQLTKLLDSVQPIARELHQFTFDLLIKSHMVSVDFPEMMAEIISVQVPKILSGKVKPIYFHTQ

[6] = Solubility of the compound; type: physicochemical
[7] = tested on: Rattus norvegicus; assay: Antihypertensive activity in Dahl salt-sensitive rat model assessed as decrease of systolic blood pressure at 60 mg/kg, po bid for 21 days; type: functional, organism-based; set-up: dose 60 mg/kg; conditions: Artery

Compound | half-life [2] [h] | clearance [3] [mL/min/kg] | Vd [4] [L/kg] | IC50 [5] [nM] | solubility [6] [µM] | Activity [1] | Activity [7]
COC(=O)C1=C(Cn2ccnc2)NC(C)=C(C#N)C1c1ccc(F)cc1Cl (stereo not given) | – | – | – | 3900 | 5 (≈ 1.93 µg/mL) | – | –
COC(=O)C1=C(Cn2cncn2)NC(C)=C(C#N)C1c1ccc(F)cc1Cl (stereo not given) | – | – | – | 4600 | > 5 | – | –

Compounds with a lower IC50 [5], results first:

half-life [2] [h] | clearance [3] [mL/min/kg] | Vd [4] [L/kg] | IC50 [5] [nM] | solubility [6] [µM] | Compound | Activity [1] | Activity [7]
4.84 | 14.1 | 0.9 | 2700 | 31 (≈ 12.1 µg/mL) | COC(=O)C1=C(Cn2cnnn2)NC(C)=C(C#N)C1c1ccc(F)cc1Cl (stereo not given) | Active | Active
– | – | – | 300 | < 5 | CCCC1=C(C(=O)OC)C(c2ccccc2Cl)C(C#N)=C(C)N1 (stereo not given) | – | –
– | – | – | 300 | 10 (≈ 3.21 µg/mL) | COC(=O)C1=C(C)NC(C)=C(C#N)C1c1ccc(F)cc1Cl (stereo not given) | – | –
